Source: patent publication US9409884B2 (Rigel Pharmaceuticals, Inc., priority 2012, dated 2016)

Target: AMPK
Assay: AMPK activation, enzyme-linked immunosorbent assay
Assay type: biochemical
Conditions: Table 9, compounds of Table 2
How it was run: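 Read-out: ELISA, used to detect compound-driven activation of AMPK.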

Structure (SMILES)	EC50 [nM]
N#Cc1ccc(CN2CCC(NC(=O)c3ccc4[nH]c5c(c4c3)CN(C(=O)OCc3ccccc3)CC5)CC2)cc1 [Compound 2-1, benzyl 8-(1-(4-cyanobenzyl)piperidin-4-ylcarbamoyl)-3,4-dihydro-1H-pyrido[4,3-b]indole-2(5H)-carboxylate]	1000 to 5000
O=C(NC1CCN(Cc2ccccc2)CC1)c1ccc2[nH]c3c(c2c1)CN(C(=O)OCc1ccccc1)CC3 [Compound 2-2, benzyl 8-(1-(4-benzyl)piperidin-4-ylcarbamoyl)-3,4-dihydro-1H-pyrido[4,3-b]indole-2(5H)-carboxylate]	10000 to 50000
CC(C)(C)OC(=O)N1CCC(NC(=O)c2ccc3[nH]c4c(c3c2)CN(C(=O)OCc2ccccc2)CC4)CC1 [Compound 2-3, benzyl 8-(1-(tert-butoxycarbonyl)piperidin-4-ylcarbamoyl)-3,4-dihydro-1H-pyrido[4,3-b]indole-2(5H)-carboxylate]	10000 to 50000
N#Cc1ccc(CN2CCC(NC(=O)c3ccc4[nH]c5c(c4c3)CN(Cc3ccccc3)CC5)CC2)cc1 [Compound 2-4, 2-benzyl-N-(1-(4-cyanobenzyl)piperidin-4-yl)-2,3,4,5-tetrahydro-1H-pyrido[4,3-b]indole-8-carboxamide]	1000 to 5000
O=C(NC1CCN(Cc2ccc(C(F)(F)F)cc2)CC1)c1ccc2[nH]c3c(c2c1)CN(Cc1ccccc1)CC3 [Compound 2-5, 2-benzyl-N-(1-(4-trifluoromethylbenzyl)piperidin-4-yl)-2,3,4,5-tetrahydro-1N-pyrido[4,3-b]indole-8-carboxamide]	1000 to 5000
CC(C)(C)OC(=O)N1CCC(NC(=O)c2ccc3[nH]c4c(c3c2)CN(Cc2ccc(C(F)(F)F)cc2)CC4)CC1 [Compound 2-6, tert-butyl 4-(2-(4-(trifluoromethyl)benzyl)-2,3,4,5-tetrahydro-1H-pyrido[4,3-b]indole-8-carboxamido)piperidine-1-carboxylate]	500 to 1000
O=C(NC1CCN(Cc2ccncc2)CC1)c1ccc2[nH]c3c(c2c1)CN(Cc1ccccc1)CC3 [Compound 2-7, 2-benzyl-N-(1-(pyridin-4-ylmethyl)piperidin-4-yl)-2,3,4,5-tetrahydro-1H-pyrido[4,3-b]indole-8-carboxamide]	5000 to 10000
O=C(NC1CCN(Cc2cccnc2)CC1)c1ccc2[nH]c3c(c2c1)CN(Cc1ccc(F)cc1)CC3 [Compound 2-8, 2-(4-fluorobenzyl)-N-(1-(pyridin-3-ylmethyl)piperidin-4-yl)-2,3,4,5-tetrahydro-1H-pyrido[4,3-b]indole-8-carboxamide]	5000 to 10000
N#Cc1ccc(CN2CCC(NC(=O)c3ccc4[nH]c5c(c4c3)CN(Cc3ccc(F)cc3)CC5)CC2)cc1 [Compound 2-9, N-(1-(4-cyanobenzyl)piperidin-4-yl)-2-(4-fluorobenzyl)-2,3,4,5-tetrahydro-1H-pyrido[4,3-b]indole-8-carboxamide]	< 500
O=C(NC1CCN(Cc2ccc(C(F)(F)F)cc2)CC1)c1ccc2[nH]c3c(c2c1)CN(Cc1ccc(F)cc1)CC3 [Compound 2-10, N-(1-(4-trifluoromethylbenzyl)piperidin-4-yl)-2-(4-fluorobenzyl)-2,3,4,5-tetrahydro-1H-pyrido[4,3-b]indole-8-carboxamide]	500 to 1000
O=C(NC1CCN(Cc2cccnc2)CC1)c1ccc2[nH]c3c(c2c1)CN(Cc1ccc(C(F)(F)F)cc1)CC3 [Compound 2-11, N-(1-(pyridin-3-ylmethyl)piperidin-4-yl)-2-(4-(trifluoromethyl)benzyl)-2,3,4,5-tetrahydro-1H-pyrido[4,3-b]indole-8-carboxamide]	< 500
N#Cc1ccc(CN2CCC(NC(=O)c3ccc4[nH]c5c(c4c3)CN(Cc3ccc(C(F)(F)F)cc3)CC5)CC2)cc1 [Compound 2-12, N-(1-(4-cyanobenzyl)piperidin-4-yl)-2-(4-(trifluoromethyl)benzyl)-2,3,4,5-tetrahydro-1H-pyrido[4,3-b]indole-8-carboxamide]	< 500
O=C(NC1CCN(Cc2ccc(C(F)(F)F)cc2)CC1)c1ccc2[nH]c3c(c2c1)CN(Cc1ccc(C(F)(F)F)cc1)CC3 [Compound 2-13, N-(1-(4-trifluoromethylbenzyl)piperidin-4-yl)-2-(4-(trifluoromethyl)benzyl)-2,3,4,5-tetrahydro-1H-pyrido[4,3-b]indole-8-carboxamide]	< 500
O=C(NC1CCN(CCc2ccccc2)CC1)c1ccc2[nH]c3c(c2c1)CN(Cc1ccc(C(F)(F)F)cc1)CC3 [Compound 2-14, N-(1-phenethylpiperidin-4-yl)-2-(4-(trifluoromethyl)benzyl)-2,3,4,5-tetrahydro-1H-pyrido[4,3-b]indole-8-carboxamide]	< 500
O=C(NC1CCN(c2ccc(F)cc2)CC1)c1ccc2[nH]c3c(c2c1)CN(Cc1ccc(C(F)(F)F)cc1)CC3 [Compound 2-15, N-(1-(4-fluorophenyl)piperidin-4-yl)-2-(4-(trifluoromethyl)benzyl)-2,3,4,5-tetrahydro-1H-pyrido[4,3-b]indole-8-carboxamide]	< 500
Cn1c2c(c3cc(C(=O)NC4CCN(Cc5ccc(C#N)cc5)CC4)ccc31)CN(Cc1ccc(C(F)(F)F)cc1)CC2 [Compound 2-16, N-(1-(4-cyanobenzyl)piperidin-4-yl)-5-methyl-2-(4-(trifluoromethyl)benzyl)-2,3,4,5-tetrahydro-1H-pyrido[4,3-b]indole-8-carboxamide]	< 500
Cn1c2c(c3cc(C(=O)NC4CCN(Cc5ccc(C(F)(F)F)cc5)CC4)ccc31)CN(Cc1ccc(C(F)(F)F)cc1)CC2 [Compound 2-17, N-(1-(4-trifluoromethylbenzyl)piperidin-4-yl)-5-methyl-2-(4-(trifluoromethyl)benzyl)-2,3,4,5-tetrahydro-1H-pyrido[4,3-b]indole-8-carboxamide]	500 to 1000
Cn1c2c(c3cc(C(=O)NC4CCN(Cc5cccnc5)CC4)ccc31)CN(Cc1ccc(C(F)(F)F)cc1)CC2 [Compound 2-18, 5-methyl-N-(1-(pyridin-3-ylmethyl)piperidin-4-yl)-2-(4-(trifluoromethyl)benzyl)-2,3,4,5-tetrahydro-1H-pyrido[4,3-b]indole-8-carboxamide]	1000 to 5000
O=C(NC1CCN(Cc2ccccc2)CC1)c1ccc2[nH]c3c(c2c1)CN(S(=O)(=O)c1ccc(C(F)(F)F)cc1)CC3 [Compound 2-19, N-(1-benzylpiperidin-4-yl)-2-(4-(trifluoromethyl)phenylsulfonyl)-2,3,4,5-tetrahydro-1H-pyrido[4,3-b]indole-8-carboxamide]	> 100000
CC(=O)n1c2c(c3cc(C(=O)NC4CCN(Cc5cccnc5)CC4)ccc31)CN(Cc1ccc(C(F)(F)F)cc1)CC2 [Compound 2-20, 5-acetyl-N-(1-(pyridin-3-ylmethyl)piperidin-4-yl)-2-(4-(trifluoromethyl)benzyl)-2,3,4,5-tetrahydro-1H-pyrido[4,3-b]indole-8-carboxamide]	1000 to 5000
N#Cc1ccc(S(=O)(=O)N2CCC(NC(=O)c3ccc4[nH]c5c(c4c3)CN(Cc3ccc(C(F)(F)F)cc3)CC5)CC2)cc1 [Compound 2-21, N-(1-(4-cyanophenylsulfonyl)piperidin-4-yl)-2-(4-(trifluoromethyl)benzyl)-2,3,4,5-tetrahydro-1H-pyrido[4,3-b]indole-8-carboxamide]	500 to 1000
O=C(NC1CCN(S(=O)(=O)c2cccnc2)CC1)c1ccc2[nH]c3c(c2c1)CN(Cc1ccc(C(F)(F)F)cc1)CC3 [Compound 2-22, N-(1-(pyridin-3-ylsulfonyl)piperidin-4-yl)-2-(4-(trifluoromethyl)benzyl)-2,3,4,5-tetrahydro-1H-pyrido[4,3-b]indole-8-carboxamide]	500 to 1000
O=C(NC1CCN(S(=O)(=O)c2ccc(C(F)(F)F)cc2)CC1)c1ccc2[nH]c3c(c2c1)CN(Cc1ccc(C(F)(F)F)cc1)CC3 [Compound 2-23, 2-(4-(trifluoromethyl)benzyl)-N-(1-(4-(trifluoromethyl)phenylsulfonyl)piperidin-4-yl)-2,3,4,5-tetrahydro-1H-pyrido[4,3-b]indole-8-carboxamide]	1000 to 5000
N#Cc1ccc(CN2CCC(NC(=O)c3ccc4[nH]c5c(c4c3)CN(S(=O)(=O)c3ccc(C(F)(F)F)cc3)CC5)CC2)cc1 [Compound 2-24, N-(1-(4-cyanobenzyl)piperidin-4-yl)-2-(4-(trifluoromethyl)phenylsulfonyl)-2,3,4,5-tetrahydro-1H-pyrido[4,3-b]indole-8-carboxamide]	1000 to 5000
N#Cc1ccc(CN2CCC(NC(=O)c3ccc4[nH]c5c(c4c3)CN(S(=O)(=O)c3ccc(C#N)cc3)CC5)CC2)cc1 [Compound 2-25, N-(1-(4-cyanobenzyl)piperidin-4-yl)-2-(4-cyanophenylsulfonyl)-2,3,4,5-tetrahydro-1H-pyrido[4,3-b]indole-8-carboxamide]	10000 to 50000
N#Cc1ccc(CN2CCC(NC(=O)c3ccc4[nH]c5c(c4c3)CN(S(=O)(=O)c3cccnc3)CC5)CC2)cc1 [Compound 2-26, N-(1-(4-cyanobenzyl)piperidin-4-yl)-2-(pyridin-3-ylsulfonyl)-2,3,4,5-tetrahydro-1H-pyrido[4,3-b]indole-8-carboxamide]	10000 to 50000
N#Cc1ccc(NC(=O)N2CCC(NC(=O)c3ccc4[nH]c5c(c4c3)CN(Cc3ccc(C(F)(F)F)cc3)CC5)CC2)cc1 [Compound 2-27, N-(1-(4-cyanophenylcarbamoyl)piperidin-4-yl)-2-(4-(trifluoromethyl)benzyl)-2,3,4,5-tetrahydro-1H-pyrido[4,3-b]indole-8-carboxamide]	1000 to 5000
O=C(NC1CCN(S(=O)(=O)c2ccc(F)cc2)CC1)c1ccc2[nH]c3c(c2c1)CN(Cc1ccc(C(F)(F)F)cc1)CC3 [Compound 2-28, N-(1-(4-fluorophenylsulfonyl)piperidin-4-yl)-2-(4-(trifluoromethyl)benzyl)-2,3,4,5-tetrahydro-1H-pyrido[4,3-b]indole-8-carboxamide]	1000 to 5000
N#Cc1cccc(S(=O)(=O)N2CCC(NC(=O)c3ccc4[nH]c5c(c4c3)CN(Cc3ccc(C(F)(F)F)cc3)CC5)CC2)c1 [Compound 2-29, N-(1-(3-cyanophenylsulfonyl)piperidin-4-yl)-2-(4-(trifluoromethyl)benzyl)-2,3,4,5-tetrahydro-1H-pyrido[4,3-b]indole-8-carboxamide]	1000 to 5000
